Source: patent US9163018B2, “Method of treatment of age-related macular degeneration (AMD)” (Prana Biotechnology Limited, priority 2006, dated 2015)

What was measured:
[1] = biological target: T1, Abeta:Zn (25:50 μM) Synthetic Aggregations (Homo sapiens, UniProt P05067); test: Disaggregation of Abeta:Zn synthetic aggregates (ThT fluorescence); type: biochemical; conditions: for Disaggregation % Aggregate reduction at 5 μM: 5 μM test compound; for EC50: Abeta:Zn 25:50 μM aggregates
T1 construct: PB Compound Mediated Dissolution of Aggregated Abeta 1-42; purchased Keck Laboratory, Yale University School of Medicine
T1 sequence (P05067 672-713 limits assumed): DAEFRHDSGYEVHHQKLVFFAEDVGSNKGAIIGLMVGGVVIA
Method: PB Compound Mediated Dissolution of Aggregated Abeta 1-42
Abeta1-42, is available from the Keck Laboratory, Yale University School of Medicine. PBS (pH 6.6): Sigma Cat# D-8662. Zn(ZnCl2): BDH Cat#100884E. (Dissolved in water in 1 mM concentration) DMSO: Ajax Cat#2225. Thioflavin T: Sigma Cat# T-3516. (Dissolved in water in 1 mM concentration)
By way of example of an amyloid composition, Abeta is dissolved in distilled water and peptide concentration is assessed by measured absorption at 214 nm in UV spectrometer. An aggregation reactive mixture (per one concentration of one testing compound) is set us as follows: Abeta: 25 μM, ZnCl2 50 μM, ThT 50 μM, PBS to make up to 500 μl. The tube is wrapped with foil and incubated at 37 degrees by rotation for 24 hours. A serial dilution of each test compound is made up in DMSO, for example: 100 μM, 500 μM, 1000 μM, 2500 μM and 5000 μM. The final concentrations are 1, 5, 10, 25 and 50 μM, 5 μl of each of these compounds is placed in a centrifuge tube and 5 μl of DMSO is added to both negative and positive control tubes. 495 μl of aggregates (after 24 hours incubation) is added to the centrifuge tube. The negative control is PBS plus ZnCl2 and ThT and DMSO. The positive control is aggregates plus DMSO. The tubes are incubated at 37 degrees for further 2 hours with rotation. Samples are measured for ThT fluorescence using an LS55 (Perkin Elmer) fluorimeter in a cuvette (500 μl volume). The excitation wavelength is 450 nm and the emission wavelength is 480 nm. Data are analyzed using graph pad prism program. The tested compounds included so called “PB” compounds.

Aβ 1-42 = biological target: T2, Aβ 1-42 (Homo sapiens, UniProt P05067); test: Fluorometric H2O2 assay (inhibition of Abeta H2O2 production); type: biochemical; conditions: concentration required to inhibit 50% of Abeta H2O2 production; read-out: H2O2 IC50
T2 construct: The reaction solutions contained Aβ 1-42 at concentrations
T2 sequence (P05067 672-713 limits assumed): as above
Method: Assay 1. Fluorometric H2O2 Assay
A fluorometric assay was used to test the ability of a test compound to inhibit hydrogen peroxide generation by Aβ in the presence of copper based on dichlorofluoroscein diacetate (DCF; Molecular Probes, Eugene Oreg.). The DCF solution (5 mM) in 100% dimethyl sulphoxide (previously purged with argon for 2 hr at 20° C.) was deacetylated in the presence of 0.25M NaOH for 30 min and neutralized at pH 7.4 to a final concentration of 1 mM. Horseradish peroxidase (HRP) stock solution was prepared to 1 μM at pH 7.4. The reactions were carried out in PBS, pH 7.4 in a 96 well plate (total volume=250 μl/well). […] The reaction mixture was incubated at 37 C for 60 min. […] H2O2 concentration may be established by comparing fluorescence with the H2O2 standards, Inhibition of Aβ H2O2 production was assayed by including a given concentration of test compound(s) in the test wells.

[2] = tested on: M17 human neuroblastoma cells; test: Cytotoxicity, M17 human neuroblastoma cells; type: cell-based; conditions: for Cytotox (% viable) M17 cells at 1 μM: 1 μM test compound; for Cytotox (% viable) M17 cells at 10 μM: 10 μM test compound
Method: (§1) Assay 3. MTS Assay for Cell Viability
(§2) Cell viability is determined using the MTS assay. Culture medium is replaced with fresh neurobasal medium plus B27 supplements minus antioxidants. 1/10th volume MTS solution (Cell Titre 96 Aqueous One, Promega Corporation) and incubated at 37° C., 2 hrs. 200 microliter aliquots are measured with a spectrophotometer at 560 nm.

[3] = tested on: primary cortical neuronal cultured cells; test: Test compound cytotoxicity, MTS assay, primary cortical neuronal cultures; type: cell-based, mouse; conditions: for Cytotox (% viable) Neuronal cells at 1 μM: 1 μM test compound; for Cytotox (% viable) Neuronal cells at 10 μM: 10 μM test compound
Method: Assay 2. Neurotoxicity Assays
Primary Cortical Neuronal Cultures
Media was then replaced with Neurobasal media (Invitrogen Life Technologies) and B27 supplements (Invitrogen Life Technologies). Cultures were maintained at 37° C. in 5% CO2. Prior to experimentation, the culture medium was replaced with Neurobasal media and B27 minus antioxidants (Invitrogen Life Technologies).
as §1, §2
Assay 4. Assay for Test Compound Cytoxicity
Neuronal cortical cells were cultured for five days as per Assay 2 in NB media and B27 supplement.
On day six the test compounds were added to the neuronal cell cultures in NB media and B27 supplement minus antioxidants.
Test compounds were dissolved in 100% DMSO to a concentration of 2.5 mM (10 mM if excess compound was weighed out per vial—then diluted to 2.5 mM).
Test compounds were not added directly to cells, instead they were added to a 48 well ‘Drug Plate’ as comprised below:
The Drug Plate was incubated at 37° C. for 15 mins. 200 μl of each well was added in triplicate to the corresponding cell plate. The cell plate was incubated at 37 C, for 4 days.
On completion of the assay, 1/10 volume MTS was added per well of plate (ie 25 μl/250 μl). The plates were incubated at 37 C for 2 hrs, and then absorbance was read at 560 nm.

| SMILES | Disaggregation % Aggregate reduction at 5 μM [1] | EC50 [1] | IC50 (Aβ 1-42) | Cytotox (% viable) M17 cells at 1 μM [2] | Cytotox (% viable) M17 cells at 10 μM [2] | Cytotox (% viable) Neuronal cells at 1 μM [3] | Cytotox (% viable) Neuronal cells at 10 μM [3] |
| --- | --- | --- | --- | --- | --- | --- | --- |
| COc1ccc(NCc2cccc3cccnc23)cc1 [PB 1194] | 21.5% | > 20 µM | > 10 µM |  |  |  |  |
| c1ccc(-c2ccccn2)nc1 [PB 898] | 32% | > 20 µM | 0.23 µM |  |  |  |  |
| CCc1cnc2c(O)cccn2c1=O [PB 1124] | 8.4% | > 20 µM | 0.4 µM | 96.1% | 27.1% |  |  |
| CCN(CC)CCNC(=O)c1cnc2c(O)cccn2c1=O [PB 1199] | 20.4% | > 20 µM | 1.64 µM | 115.2% | 102.7% |  |  |
| CCn1cnc2c(O)c(I)cc(I)c2c1=O [PB 1169] | 64% | 1.44 µM | 0.31 µM |  |  |  |  |
| CCN(CC)CCn1cnc2c(O)c(I)ccc2c1=O [PB 1163] | 43.3% | 11 µM | 0.29 µM | 106.5% | 41.4% |  |  |
| CCc1cnc2c(O)cccn2c1=S [PB 1143] | 62% | 4.1 µM | 0.48 µM | 93.3% | 73.7% |  |  |
| CCN(CC)C(=O)Cn1cnc2c(O)c(I)ccc2c1=O [PB 1167] | 39.3% | 7.4 µM | 0.39 µM | 92.2% | 98.7% |  |  |
| CCCNC(=O)Cn1cnc2c(O)c(I)ccc2c1=O [PB 1166] | 21.7% | > 20 µM | 0.43 µM | 105% | 115.8% |  |  |
| Br.CC(Br)CCn1cnc2c(O)c(Cl)cc(Cl)c2c1=O (stereo not drawn) [PB 1114] | 19.2% | > 20 µM |  |  |  | 101% | 73% |
| CCC(C)Cn1cnc2c(O)cccc2c1=O (stereo not drawn) [PB 1184] | 49% | 5.27 µM | 0.54 µM | 102.7% | 47.2% |  |  |
| Br.C/C=C/Cn1cnc2c(O)c(Cl)cc(Cl)c2c1=O [PB 1126] | 69% | 3.7 µM |  |  |  |  |  |
| O=c1c2cccc(O)c2ncn1CC1CC1 [PB 1118] | 58% | < 0.4 µM | 1.44 µM | 106.8% | 88.6% |  |  |
| CCCCCn1cnc2c(O)c(I)ccc2c1=O [PB 1176] | 45% | 6.9 µM | 0.3 µM | 86.3% | 38.5% |  |  |
| O=c1c2c(Cl)ccc(O)c2ncn1CC1CC1 [PB 1132] | 16% | 15.2 µM | 0.47 µM | 86.3% | 57.6% |  |  |
| O=c1c2cccc(O)c2ncn1-c1ccc(F)cc1 [PB 1156] | 22% | > 20 µM | 0.96 µM | 92.7% | 67.5% |  |  |

| SMILES | Disaggregation % Aggregate reduction at 5 μM [1] | EC50 [1] | IC50 (Aβ 1-42) | Cytotox (% viable) M17 cells at 1 μM [2] | Cytotox (% viable) M17 cells at 10 μM [2] | Cytotox (% viable) Neuronal cells at 1 μM [3] | Cytotox (% viable) Neuronal cells at 10 μM [3] |
| --- | --- | --- | --- | --- | --- | --- | --- |
| Oc1ccccc1-c1cn2ccccc2n1 [PB 1173] | 10% | > 20 µM | > 20 µM |  |  |  |  |
| O=c1c2ccc(I)c(O)c2ncn1-c1ccc(F)cc1 [PB 1162] | 52% | 4.7 µM | 3.2 µM | 93.9% | 36.5% |  |  |
| O=c1c2ccc(I)c(O)c2ncn1Cc1cccc(Cn2cnc3c(O)c(I)ccc3c2=O)n1 [PB 1155] | 59% | 3.9 µM | 0.31 µM |  |  |  |  |
| O=c1c2c(Cl)ccc(O)c2ncn1Cc1ccccn1 [PB 1133] | 22% | > 20 µM | 0.79 µM |  |  |  |  |
| O=c1c2c(Cl)cc(I)c(O)c2ncn1-c1cccnc1 [PB 1164] | 26% | > 20 µM | 0.24 µM | 112% | 111% |  |  |
| Oc1cccc2sc(Cc3ccccc3)nc12 [PB 1191] | 10% | 6.89 µM | > 10 µM |  |  |  |  |
| Fc1ccc(NCc2cccc3cccnc23)cc1 [PB 1195] | 19.9% | > 20 µM | > 10 µM |  |  |  |  |
| O=c1c2c(Cl)cc(I)c(O)c2ncn1Cc1ccccn1 [PB 1141] | 26% | 19.5 µM | 0.48 µM | 102.8% | 137% |  |  |
| CCCCNC(=O)c1cnc2c(O)cccn2c1=O [PB 1159] | 49.9% | 5.06 µM | 0.68 µM | 115% | 41.1% |  |  |
| O=C(NCc1ccc(F)cc1)c1cnc2c(O)cccn2c1=O [PB 1154] | 31% | > 20 µM | 0.64 µM | 76.7% | 54.2% |  |  |
| CN(C)c1ccc(-c2cc(Cl)c3cccnc3c2O)cc1 [PB 851] |  |  |  |  |  | 94% | 85% |
| O=C1c2ccccc2C(=O)N1CCn1cnc2c(O)c(I)ccc2c1=O [PB 1170] | 53% | 4.28 µM | 0.72 µM | 127.4% | 104.8% |  |  |
| O=C1c2ccccc2C(=O)N1CCn1cnc2c(O)cccc2c1=O [PB 1185] | 35% | 9.5 µM | 0.6 µM | 103.9% | 106.5% |  |  |
| O=c1c2cccc(O)c2ncn1Cc1ccccn1 [PB 1117] | 57.3% | < 0.4 µM | 0.72 µM | 109.2% | 96% |  |  |
| O=S(=O)(O)c1ccc(-c2ccnc3c2ccc2c(-c4ccc(S(=O)(=O)O)cc4)ccnc23)cc1 [PB 68] | 44% | 8.5 µM | > 10 µM |  |  |  |  |
| O=C(Nc1nc2ccc(F)cc2s1)c1cnc2c(O)cccn2c1=O [PB 1174] | 22% | 14.7 µM | 0.96 µM | 60.1% | 34.2% |  |  |
